Experiments:
Epithelial cell = test: Antiviral activity against influenza B (Hong kong/5/72) in human epithelial cells; type: functional, cell-based
MDCK [1] = test: cells; conditions: Canis lupus familiaris
MDCK [2] = test: Minimum cytotoxic concentration required to cause a microscopically detectable alteration of MDCK, Madin-Darby canine kidney cell morphology.; type: functional, Canis lupus familiaris

SMILES | EC50 (Epithelial cell) | EC50 (MDCK [1]) | MCC50 (MDCK [2])
CC1CNC2(C1)C1CC3CC(C1)CC2C3 (stereo not given) | 1040 µM | 3.3 µM | 313.6 µM
C1CNC2(C1)C1CC3CC(C1)CC2C3 (stereo not given) | > 1100 µM | 1.8 µM | >610.5 µM
NC(=O)c1ncn([C@@H]2O[C@H](CO)[C@@H](O)[C@H]2O)n1 [RIBAVIRIN] | > 1020 µM | 3.7 µM | >276.9 µM
CC1CCN(C)C12C1CC3CC(C1)CC2C3 (stereo not given) | > 746 µM | 12.5 µM | >60 µM
CC1CN(C)C2(C1)C1CC3CC(C1)CC2C3 (stereo not given) | > 746 µM | 3.3 µM | >226 µM
NC12CC3CC(CC(C3)C1)C2 [AMANTADINE] | > 1330 µM | 1.1 µM | >1211.8 µM
CC1CCC2(C3CC4CC(C3)CC2C4)N1C (stereo not given) | 149 µM | 2.7 µM | 55.3 µM
CC1CCNC12C1CC3CC(C1)CC2C3 (stereo not given) | > 1040 µM | 3.7 µM | >280 µM
CC1CCC2(N1)C1CC3CC(C1)CC2C3 (stereo not given) | > 1040 µM | 2.5 µM | >414 µM
CN1CCCC12C1CC3CC(C1)CC2C3 (stereo not given) | > 1040 µM | 2.9 µM | 357 µM

Reference: ChEMBL document CHEMBL1136382, “Spiro[pyrrolidine-2,2'-adamantanes]: synthesis, anti-influenza virus activity and conformational properties” (Bioorg Med Chem Lett, 2003)
